The values that follow come from US20030170299A1, “Therapeutic methods for acute myeloid leukemia” (priority 2002, published 2003).

SMILES strings stand for the structures. Where two headings read alike, the source gives them in different places.

The subject of one data set is FR-β (+) AML cells. Description: [3H] folic acid binding to FR-β (+) AML cells. The arrangement: species or system human.
Data set [1] relates to FR-β expression. Description: ATRA induction of FR-β in AML blasts from patient marrow (Western blot). In kind it is cell-based, human. To be noted: myeloid leukemia cells from patient bone marrow, in vitro, ATRA 1 μmol/L. On the procedure: FIG. 5. ATRA induction of FR-β in AML blasts from patient marrow. Cells (1×10^6) were cultured and treated with or without ATRA (1 μmol/L) for 6 hours (A and B), 24 hours (C), or 5 days (D). The samples were obtained from separate patients with FAB-M2 (A and C) or FAB-M4 (B and D) type AML. Cell lysates were then examined by Western blot and the use of rabbit anti-FR-β- and AP conjugated antibodies.
In one study, FR-β expression was elevated up to 20-fold by ATRA in KG-1 myeloid leukemia cells in a dose-dependent and reversible manner in the absence of terminal differentiation or cell growth inhibition (FIG. 4). The retinoid-induced increase in FR-β expression occurred in these cells without causing terminal differentiation or growth inhibition of the cells. In addition, ATRA increased FR-β expression in vitro in myeloid leukemia cells from patient bone marrow (FIG. 5). ATRA-induction of FR-β occurred even though primary AML blast cells (M2 and M4 type AMLs) are known to be refractory to ATRA differentiation therapy. […] In addition, FR-β inducers can modulate FR-β expression in AML cells refractory to retinoid differentiation therapy.
(In general: In western blotting, separated proteins are transferred to a membrane and probed.)

Data set [2] has as its system FR-β expression.
Data set [3] concerns acute promyelocytic leukemia (PML). To be noted: PML patients; cited from earlier work.
A further data set deals with FR-β. To be noted: cited from earlier work.
For data set [4], the system named is KG-1 cells. Description: Cellular uptake of calcein liposomes by flow cytometry, KG-1. In kind it is cell-based, human. To be noted: 6S-5MeTHF at 10 μM. On the procedure: Folate-coated liposomes with the composition DSPC/Chol/folate-PEG-DSPE (60:40:0.1, m/m) and entrapping calcein, a membrane impermeable fluorescent dye, (f-L-calcein) were prepared, using a modification of the procedure described above. Non-targeted calcein-containing liposomes (L-calcein), with essentially the same composition, minus folate-PEG-DSPE, were used as a control. FR (+) cell lines, human KG-1, CHO-FR-β, and murine L1210JF, and the FR (−) cell lines KG-1a, CHO-K1 and L1210 were used. FR-β expression on the cells was determined by flow cytometry using a receptor-specific antibody. For liposome binding studies, the cells were treated in triplicate with f-L-calcein (folate-conjugated liposomes containing calcein) or free L-calcein at 20 μM in media. The cells were then washed 3× with cold PBS and examined by […] (FIG. 3).
Data on cellular uptake of calcein-containing liposomes in the FR (+) KG-1, L1210JF and CHO-FR-β cells, and FR (−) KG-1a, L1210 and CHO-K1 controls are summarized in Table 2 below.
In order to examine the potential effect of physiological folate on FR-mediated drug delivery in FR-β (+) cells, f-L-calcein uptake was measured in KG-1 cells in the presence of 0-10 μM 6S-5-methyltetrahydrofolate (6S-5MeTHF) using the same flow cytometry method as described above.

The next data set deals with CMLs. To be noted: in vivo; cited from earlier work.
The next data set concerns L1210JF ascites tumor. Description: Survival of DBA/2 mice carrying L1210JF ascites tumor. In kind it is in vivo, DBA/2J mice. To be noted: i.p. on days 1, 5, 9; free DOX 3 mg/kg, L-DOX and f-L-DOX 5 mg/kg DOX. Here is the method: The antileukemic therapeutic efficacy of f-L-DOX was evaluated in two FR (+) murine leukemia ascites tumor models. The first model consisted of DBA/2J mice with ascites tumors derived from intraperitoneally engrafted FR (+) murine lymphocytic leukemia L1210JF cells. Male mice (18-22 g, from Charles River, Wilmington, Mass.) were placed on a folate-deficient diet (AIN-93G from Dyets, Inc., PA) and for at least one week prior to leukemia cell inoculation. The mice, in groups of 8 animals, were injected intraperitoneally with 1×10^6 L1210JF cells on day 0. The animals then received three intraperitoneal injections (in 50 μL) of various drug formulations on days 1, 5, and 9. […] In the saline-treated group, no visible ascitic fluid began to develop until after one week.

Data set [5] relates to KG-1 cells. Description: MTT cytotoxicity, KG-1. In kind it is cell-based, human. On the procedure: (§1) FR-targeted liposomal doxorubicin (f-L-DOX) was evaluated for in vitro cytotoxicity in both FR (+) and FR (−) leukemia cells using a standard cell survival assay (MTT assay). FR-targeted liposomal-doxorubicin (f-L-DOX) was prepared as described above. F-L-DOX in vitro cytotoxicity was evaluated in two FR (+) cell lines [KG-1, an FR-β (+) human AML cell line, and L1210JF, an FR (+) subline of L1210 murine acute lymphocytic leukemia cell line] and two FR (−) cell lines [KG-1a, an FR-β (−) subline of KG-1, and FR (−) L1210 cells] using the survival assay. The cells were treated in quadruplicate with serial dilutions of f-L-DOX, non-targeted control L-DOX, or free DOX. Cell viability was determined and IC50 values were calculated. For KG-1 and KG-1a cells, the MTT assay was repeated with cells cultured in media containing 1 μM ATRA for 5-days.

The next data set relates to L1210 cells. Description: MTT cytotoxicity, L1210. In kind it is cell-based, murine. On the procedure: as §1
The next data set relates to L1210JF cells. Description: MTT cytotoxicity, L1210JF. It counts as cell-based, murine. As to conditions: no ATRA. Here is the method: as §1
A further data set concerns KG-1a cells. Description: MTT cytotoxicity, KG-1a. In kind it is cell-based, human. Here is the method: as §1

Description for KG-1 ascites tumor: Effect of f-L-DOX treatment on the survival of SCID mice carrying KG-1 ascites tumor. SCID mice inoculated intraperitoneally with KG-1 cells that were treated with saline, free DOX, L-DOX or f-L-DOX, with or without co-injection of ATRA. Animal survival was recorded starting from the day of tumor cell inoculation.
The therapeutic efficacy of f-L-DOX in a human leukemia murine ascites xenograft model was further tested. Female CB.17 SCID (scid/scid, 18-22 g) mice were inoculated intraperitoneally with human AML KG-1 cells, which express FR-β, to generate ascites tumors. KG-1 cells (1×10^6) grown in folate-deficient RPMI1640 media supplemented with 20% FBS were injected into the mice intraperitoneally on day 0. […] Peritoneal exudate cells were collected by peritoneal lavage with 5 mL Hanks' balanced salt solution (HBSS), pelleted and resuspended in RPMI1640 media. […] The tumor cells were inoculated into 8 groups of 8 mice. Four of the groups received daily intraperitoneal injections of 10 mg/kg of ATRA on days 1 through 5. The following formulations were administered as intraperitoneal injections on days 1, 5, and 9 (in 50 μL): 1) saline, 2) free DOX (3 mg/kg), 3) L-DOX (5 mg/kg), 4) f-L-DOX (5 mg/kg), 5) saline+ATRA, 6) free DOX+ATRA, 7) L-DOX+ATRA, and 8) f-L-DOX+ATRA. The body weight and survival of the animals were monitored daily during the course of the study.

Turning to `Nc1nc2ncc(CNc3ccc(C(=O)N[C@@H](CCC(=O)O)C(=O)O)cc3)nc2c(=O)[nH]1` [folic acid], in the data set on FR-β (+) AML cells, the “[3H] folic acid bound” value came to 0.72±0.13 pmoles per 10^6 cells.

Turning to `CC1=C(/C=C/C(C)=C/C=C/C(C)=C/C(=O)O)C(C)(C)CCC1` [ATRA, all-trans retinoic acid], in the data set on KG-1 ascites tumor (ATRA treatment in the absence of f-L-DOX or L-DOX), the survival result was “did not enhance survival”. Moreover, the FR-β expression result in the data set on FR-β expression [1] is reported as “increased”; in the data set with FR-β expression [2] (KG-1 cells, flow cytometry, 5-day exposure to ATRA (1 μM)), “significant increase”. Further, the FR-β expression elevated result in the data set on FR-β expression [2] (KG-1 myeloid leukemia cells, dose-dependent, reversible) is given as “up to 20 fold”. Moreover, the Complete remission in data set [3] is 72-95%.

For `CN1c2c(nc(N)[nH]c2=O)NC[C@@H]1CNc1ccc(C(=O)N[C@@H](CCC(=O)O)C(=O)O)cc1` [6S-5MeTHF, 6S-5-methyltetrahydrofolate], the “affinity of FR-β lower than for folic acid” value with FR-β is around 35 ×. Besides, in the data set on KG-1 cells [4], the “inhibition of f-L-calcein uptake” value is reported as “did not significantly inhibit”.

On to `CS(=O)(=O)O.Cc1ccc(NC(=O)c2ccc(CN3CCN(C)CC3)cc2)cc1Nc1nccc(-c2cccnc2)n1` [Gleevec™], for which the “effective against CMLs” value in the data set on CMLs is given as 90%.

One may read the IC50 as the concentration that gives 50% inhibition. As to `COc1cccc2c1C(=O)c1c(O)c3c(c(O)c1C2=O)C[C@@](O)(C(=O)CO)C[C@@H]3O[C@H]1C[C@H](N)[C@H](O)[C@H](C)O1` [Free DOX, doxorubicin], the dose-limiting toxicity in the data set with KG-1 ascites tumor (mice, results not shown) is listed as above 3 mg/kg. In the data set with L1210JF ascites tumor, the median survival time was determined as 28.5 days. For the same molecule, the concentration for half-maximal inhibition (IC50) was found to be 0.65 µM in the data set with KG-1 cells [5] (KG-1, FR-β (+), no ATRA, folate-free media); 0.63 µM in the data set on KG-1 cells [5] (KG-1, FR-β (+), pre-exposure to ATRA, folate-free media); 0.67 µM in the data set with KG-1 cells [5] (KG-1, no ATRA, media containing 1 mM folic acid); 0.68 µM in the data set with KG-1 cells [5] (KG-1, pre-exposure to ATRA, media containing 1 mM folic acid); 0.91 µM in the data set with L1210 cells (L1210, FR (−), no ATRA, folate-free media); 0.93 µM in the data set with L1210 cells (L1210, no ATRA, media containing 1 mM folic acid). For the same molecule, the IC50 in the data set with L1210JF cells (FR-α (+), folate-free media) was 0.86 µM; in the data set with L1210JF cells (media containing 1 mM folic acid) it was 0.87 µM; in the data set with KG-1a cells (FR (−), no ATRA, folate-free media), 0.61 µM; in the data set with KG-1a cells (FR (−), pre-exposure to ATRA, folate-free media) it was 0.59 µM; with KG-1a cells (no ATRA, media containing 1 mM folic acid), 0.63 µM; in the data set with KG-1a cells (pre-exposure to ATRA, media containing 1 mM folic acid) it was 0.62 µM.
